Experiments:
[1] = molecular target: T1, full-length NOR-1 (MINOR) (Homo sapiens, UniProt Q92570); experiment: Mammalian Two Hybrid luciferase reporter, GAL4-full-length Nor1 construct; type: cell-based; settings: for Full length Nor1-ligand activity RXR(+) / Full length Nor1-ligand activity RXR(−): NIH3T3 cells, luciferase; for Full length Nor1-ligand activity RXR(+): with RXRα; for function of enhancing the transcriptional activation ability of NOR-1 (MINOR): luciferase reporter system; for Full length Nor1-ligand activity RXR(−): without RXRα
T1 construct: Full length Nor1-; expressed in transfected cells; host or cells: NIH3T3
T1 sequence (Q92570 whole entry, the tested form may be a part): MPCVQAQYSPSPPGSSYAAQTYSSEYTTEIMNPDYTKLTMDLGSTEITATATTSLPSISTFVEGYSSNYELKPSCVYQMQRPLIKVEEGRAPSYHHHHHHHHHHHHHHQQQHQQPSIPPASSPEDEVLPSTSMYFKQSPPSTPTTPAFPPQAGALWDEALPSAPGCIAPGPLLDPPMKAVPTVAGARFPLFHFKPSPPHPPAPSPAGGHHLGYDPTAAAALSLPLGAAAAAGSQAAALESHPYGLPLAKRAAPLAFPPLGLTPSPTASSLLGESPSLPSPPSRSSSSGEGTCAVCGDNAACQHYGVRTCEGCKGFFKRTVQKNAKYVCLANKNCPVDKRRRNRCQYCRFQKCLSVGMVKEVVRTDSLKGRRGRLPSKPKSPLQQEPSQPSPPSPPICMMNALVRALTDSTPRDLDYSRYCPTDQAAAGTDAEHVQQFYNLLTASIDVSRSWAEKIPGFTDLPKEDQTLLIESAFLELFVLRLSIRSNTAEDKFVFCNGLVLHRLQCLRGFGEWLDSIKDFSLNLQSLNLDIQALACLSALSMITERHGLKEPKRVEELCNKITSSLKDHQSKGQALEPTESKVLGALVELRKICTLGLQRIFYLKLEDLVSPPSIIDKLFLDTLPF
Protocol: A full-length gene or the ligand-binding site of NOR-1 is inserted into X, and the full-length gene of the retinoic acid X receptor (RXR)α is inserted into Y. These constructs are transfected into NIH3T3 cells, and the activity of induced luciferase is measured.
Mammalian Two Hybrid system was slightly modified. […] Actually, activity could not be detected for lipid-soluble metabolites existing on the metabolic map of mammals that might be natural ligands of NOR-1 in a screening system wherein only the ligand-binding domain was inserted. A plasmid wherein the full-length gene of NOR-1 (MINOR) had been inserted into pBIND and a luciferase reporter plasmid containing a GAL4 binding site were cotransfected into NIH3T3 cells, and the luciferase activity was measured automatically. By further addition of small molecule substances to this system enables screening of ligands by their transcription enhancing activity.
NOR-1 (MINOR) expression is induced under conditions where the leukocytes are hyperactive, such as in atopic dermatitis peripheral blood, and apoptosis of cells is very likely to occur as a result of this induced NOR-1 (MINOR) expression. Ligands existing in vivo may exist at sites where nuclear receptors are highly expressed. Therefore, small-molecule lipid-soluble mediators that are expected to be produced under such conditions were added to the assay system as candidate ligands to evaluate their luciferase activity enhancing function. […] Thus, the method established by the present inventors opened a way to discover native ligands and synthetic ligands of NOR-1 (MINOR) by high throughput.

LBD of Nor1 = molecular target: T2, LBD of Nor1 (Homo sapiens, UniProt Q92570); experiment: BIAcor S51 binding to GST-LBD of Nor1; settings: BIAcor S51, comparison with GST
T2 construct: GST-LBD of Nor1 was expressed in E. coli and purified; GST (N); made in house; host or cells: E. coli
T2 sequence (Q92570 394-623 limits assumed): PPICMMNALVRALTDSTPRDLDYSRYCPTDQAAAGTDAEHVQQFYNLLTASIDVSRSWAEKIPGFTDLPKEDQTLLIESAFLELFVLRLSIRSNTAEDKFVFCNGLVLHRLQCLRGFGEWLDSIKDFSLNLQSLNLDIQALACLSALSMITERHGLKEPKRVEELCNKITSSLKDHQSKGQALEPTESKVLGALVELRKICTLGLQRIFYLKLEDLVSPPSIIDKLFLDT
Source text: Glutathione S-transferase (GST) was used as a comparison control and 13,14-Dihydro-15-keto-PGA2 as a negative control.
In the present invention, as a means for detecting or measuring bound compound, a biosensor utilizing surface plasmon resonance phenomenon may be used. A biosensor (for example, BIAcore, Pharmacia) utilizing the surface plasmon resonance phenomenon allows real-time observation of the interaction between the NOR-1 protein and a test compound as a surface plasmon resonance signal. Therefore, using biosensors such as BIAcore, the binding between the NOR-1 protein and the test compound can be evaluated.

[2] = system: Nor1 gene that completely lacked the LBD region (ΔLBD); experiment: Mammalian Two Hybrid reporter with LBD deletion mutant of Nor1; type: cell-based, human; settings: Nor1 lacking the LBD region
Source text: Therefore, prostaglandin A2 was implicated to function by actually acting on the LBD region of the nuclear receptor.

[3] = system: Nor1 expression in peripheral blood eosinophils; experiment: Nor1 expression induction in cultured peripheral blood eosinophils; type: cell-based, human; settings: cultured peripheral blood eosinophils from healthy subjects
Source text: Values collected for beta-actin and GAPDH are shown.
A large amount of peripheral blood eosinophils were collected from healthy subjects, and cultured in suspension in a petri dish while suppressing their activation. […] The anti-CD30 antibody that has an agonistic activity against eosinophilic CD30 has recently been receiving attention, because it induces apoptosis of eosinophils via a specific intracellular pathway and may serve as a therapeutic agent for asthma.
Thus, the apoptosis by anti-CD30 antibody accompanied by induction of Nor1 may occur through an eosinophil-specific apoptosis pathway that is different from the conventional pathway.

Molecule | Full length Nor1-ligand activity RXR(+) [1] [µM] | Full length Nor1-ligand activity RXR(+) ([1]; symbol) | function of enhancing the transcriptional activation ability of NOR-1 (MINOR) [1] | binding to the LBD of Nor1 (LBD of Nor1) | Full length Nor1-ligand activity RXR(−) [1] [µM] | Full length Nor1-ligand activity RXR(−) ([1]; symbol) | transcriptional activity with LBD deletion mutant [2] | induction of Nor1 [3]
CCCCC[C@H](O)/C=C/[C@H]1C=CC(=O)[C@H]1CCCCCCC(=O)O [8-iso Prostaglandin A1] | 10 | ∘ |  |  |  |  |  | 
CCCCCC(=O)CC[C@H]1C=CC(=O)[C@@H]1C/C=C\CCCC(=O)O [13,14-dihydro-15-keto Prostaglandin A2] |  |  | did not show any activity in the reporter system | did not bind to LBD |  |  |  | 
CCCCC[C@@](C)(O)/C=C/[C@H]1C=CC(=O)[C@@H]1C/C=C\CCCC(=O)O [15(R)-15-methyl Prostaglandin A2] | 10 | ∘ | enhancing the transcriptional activation ability of NOR-1 (MINOR) |  | 10 | ∘ |  | 
CCCCC/C=C\C=C1\C(=O)C=C[C@@H]1C/C=C\CCCC(=O)O [15-dioxy-Δ^12,14-Prostaglandin J2] | 10 | ∘ |  |  |  |  |  | 
CCCCC(C)(C)[C@H](O)/C=C/[C@H]1C=CC(=O)[C@@H]1C/C=C\CCCC(=O)O [16,16-dimethyl Prostaglandin A2] | 5 | ∘ |  |  | 5 | ∘ |  | 
O=C(O)CCC/C=C\C[C@H]1C(=O)C=C[C@@H]1/C=C/[C@@H](O)COc1ccccc1 [16-phenoxy tetranor Prostaglandin A2] | 30 | ∘ | enhancing the transcriptional activation ability of NOR-1 (MINOR) |  | 30 | ∘ |  | 
O=C(O)CCC/C=C\C[C@H]1C(=O)C=C[C@@H]1/C=C/[C@@H](O)CCc1ccccc1 [17-phenyl trinor Prostaglandin A2] | 10 | ∘ | enhancing the transcriptional activation ability of NOR-1 (MINOR) |  | 10 | ∘ |  | 
CCCCC[C@H](O)/C=C/[C@H]1C=CC(=O)[C@@H]1CCCCCCC(=O)O [Prostaglandin A1] | 10 | ∘ | enhancing the transcriptional activation ability of NOR-1 (MINOR) | binding of PGA1 and PGA2 to the LBD of Nor1 was detected | 10 | ∘ |  | 
CCCCC[C@H](O)/C=C/[C@H]1C=CC(=O)[C@@H]1C/C=C\CCCC(=O)O [Prostaglandin A2] | 10 | ∘ | enhancing the transcriptional activation ability of NOR-1 (MINOR) | binding of PGA1 and PGA2 to the LBD of Nor1 was detected | 10 | ∘ | remarkable suppression of the transcriptional activity | 
IL-5: cytokine used to activate eosinophils |  |  |  |  |  |  |  | did not lead to the induction of Nor1
IL-4: cytokine used to activate eosinophils (protein, UniProt P05112 25-153, looked up) Interleukin-4: HKCDITLQEIIKTLNSLTEQKTLCTELTVTDIFAASKNTTEKETFCRAATVLRQFYSHHEKDTRCLGATAQQFHRHKQLIRFLKRLDRNLWGLAGLNSCPVKEANQSTLENFLERLKTIMREKYSKCSS |  |  |  |  |  |  |  | did not lead to the induction of Nor1

Reference: patent publication US20040214192A1, “Methods of testing for allergic diseases and therapeutic agents for treating same” (Genox Research, Inc., priority 2002, published 2004)
